# What was measured:
# NP4 = assay: Cellular uptake of FITC-labeled peptide; format: cell-based
# Procedure: (§1) Cells were grown typically in 6 well plates (35 mm dish) to 50-70% confluence. Usually the transfect ion efficiency is somehow cell type specific. 2 mM peptide was diluted 4 times in PBS (2 ul+6 ul) (For FITC peptidedo not dilute the 2 mM stock). For each transfection reaction tube with 100 ul PBS+1 ul diluted peptide was set up. Chariot reagent was diluted 1:10 in ddH2O and for each transfection a 94 ul H2O tube+6 ul diluted Chariot was prepared (No master mix for more than 4 transfections). The 2 tubes were carefully mixed by pipetting up and down and incubated 30 min. at room temperature. Medium was aspirated from the dish (well) and cells were overlay with the mix. 400 ul serum free medium was added and cells were incubated further for 1 h 37 C (cell incubator). 500 ul complete medium (with 10% serum) was finally added. If cells are not very sensitive to serum starvation (cancer cell lines) 5% serum could be used.
# (§2) Fluorescent and Confocal microscopy was performed on cells treated with FITC labeled peptides with or without of transfection reagent depending on the cell type. Cells were mounted on cover slips using mounting media with DAPI (Invitrogen) and in some cases cytoskeleton dye (Invitrogen).
# (§3) In order to evaluate their cellular uptake and localization, the N terminus of these peptides was labeled with fluorescein isothiocyanate (FITC). Despite the net positive charge of these peptides, their uptake by the cells is cell-type specific. Some cell lines such as HL-60 (an AML cell line) allowed the peptide to enter the cells without any modification or carrier, and some cell lines were not penetrable at all. In order to achieve a similar level of peptide delivery in most cell types, a Chariot Transfection Reagent (Active Motif) was used as a peptide carrier, as directed from the manufacturer. All cell types used in the study described herein were subjected to individual evaluation of the percentage of the cells in which the peptide was delivered as well as the duration of time during which they sustained the labeled peptide in the cells. After Chariot treatment, confocal microscopy studies confirmed uptake of these peptides throughout the cell, including nuclei (as evidenced by DAPI overlay, FIG. 1B).
# MCF7 = assay: Cellular uptake of FITC-labeled peptide; format: cell-based
# Procedure: as §1, §2, §3
# KG1a = assay: Cellular uptake of FITC-labeled peptide; format: cell-based
# Procedure: as §1, §2, §3
# HeLa = assay: Cellular uptake of FITC-labeled peptide; format: cell-based
# Procedure: as §1, §2, §3
# HL60 = assay: Cellular uptake of FITC-labeled peptide; format: cell-based, human
# Procedure: as §1, §2, §3
# SNU387 = assay: Cellular uptake of FITC-labeled peptide; format: cell-based, human
# Procedure: as §1, §2, §3
# AML = assay: Cellular uptake of FITC-labeled peptide; format: cell-based, human
# Procedure: as §1, §2, §3
# HuH-7 = assay: Cellular uptake of FITC-labeled peptide; format: cell-based, human
# Procedure: as §1, §2, §3
# SALL4 = SALL4 RNA knock-down in primary AML cells (qRT-PCR); format: cell-based, human; settings: qRT-PCR normalized to GAPDH
# From the text: FIG. 6: Down-regulation of SALL4 in primary AML led to cell death. (6A) Down-regulation of SALL4 in primary AML cells. The ability of shRNA constructs 7412 to knock down SALL4 mRNA in AML cells were confirmed by qRT-PCR with normalization to GAPDH. The expression of SALL4 RNA in AML cells that were infected with SALL4 shRNA (7412)-expressing retroviruses was reduced to 35% of those infected with scrambled pRS control vectors, a shRNA pRS against non-effective GFP sequence from OriGene Technologies, Inc., Rockville Md. (N=3, Error Bars: +/−SD). (6B) Increased apoptosis and cell death were observed via flow cytometry in AML cells upon SALL4 knock down by Annexin V/PI staining. Control scrambled shRNA-infected cells and SALL4 shRNA-infected cells were analyzed 24 to 48 h post transduction. Data were derived from four independent experiments. (6C-6F) Leukemia development in xenotransplant recipient mice. AML is defined as blast count more than 20% in peripheral blood and/or bone marrow with multiple organ involvements observed in recipient mice. Blasts were present in liver (6C, ×200), spleen (6D, ×200), and bone marrow (6E, ×200), and were human CD45 positive (6F). […]
Substance,"peptide uptake (cells with peptide) (NP4; NP4, no carrier)","peptide uptake (cells with peptide) (NP4; NP4, with Chariot)","peptide uptake (cells with peptide) (MCF7; MCF7, no carrier)","peptide uptake (cells with peptide) (MCF7; MCF7, with Chariot)",peptide uptake (cells with peptide) (KG1a; no carrier),peptide uptake (cells with peptide) (KG1a; with Chariot),peptide uptake (cells with peptide) (HeLa; no carrier),peptide uptake (cells with peptide) (HeLa; with Chariot),"peptide uptake (cells with peptide) (HL60; HL60, no carrier)","peptide uptake (cells with peptide) (HL60; HL60, with Chariot)","peptide uptake (cells with peptide) (SNU387; SNU387, no carrier)","peptide uptake (cells with peptide) (SNU387; SNU387, with Chariot)",peptide uptake (cells with peptide) (AML; no carrier),peptide uptake (cells with peptide) (AML; with Chariot),"peptide uptake (cells with peptide) (HuH-7; HuH-7, no carrier)","peptide uptake (cells with peptide) (HuH-7; HuH-7, with Chariot)",SALL4 RNA expression relative to scrambled control (SALL4)
"H-MSRRKQAKPQHI-OH [wt peptide, MSRRKQAKPQHI]",>1%,>5%,~50%,70%,>10%,60%,0%,80%,~50%,70%,0%,40%,0%,50%,0%,60%,–
"GATGCCTTGAAACAAGCCAAGCTACCTCA (chemistry not given here) [compound 7412, SALL4 shRNA used in primary AML cells]",–,–,–,–,–,–,–,–,–,–,–,–,–,–,–,–,35%
